Tested on: HaCaT human keratinocytes
Test: Affymetrix GeneChip microarray, transcriptional response to β-carotene and/or UVA
Assay type: cell-based
Description: The cell culture experiments were carried out as described. Briefly, a subclone of passage 65 HaCaT keratinocytes, selected for differentiation capacity, was used at passages 16 to 23 after subcloning. 2×10^5 cells were seeded per 60 millimeter dish. Starting the following day, the cells were pretreated for 2 days with β-carotene at 1.5 μM, a typical concentration in human plasma after moderate dietary supplementation)
β-carotene-containing medium was prepared as follows. Fresh all-E-β-carotene (DSM Nutritional Products, Kaiseraugst, Switzerland) stock solution in THF (containing 0.025% BHT; Fluka Chemie A G, Switzerland) was diluted 1:2 with ethanol and added to cell culture medium to a final concentration of 1.5 μM β-carotene. The solvent concentration in the medium was 0.5% for all treatments. β-carotene-containing medium was prepared fresh for the daily medium changes.
On day 3 of the experiment, the cells were irradiated with a Hönle sun lamp Sol 500 (270 kJ/m^2; Dr. Hönle, Germany).
Five independent, factorially designed cell irradiation experiments were analyzed by microarray hybridization. For each experiment, one chip was hybridized per treatment condition. GeneChip® analysis was done as described in [132], which is incorporated by reference, as if recited in full herein. Gene regulation by β-carotene and/or UVA was calculated relative to placebo.
Changes in gene expression were included in further analysis only if the change factor was […], and if unpaired t-tests yielded p values≦0.05. Upregulations by a […] are labeled bold, downregulations by a change factor of […] are labeled bold italics. (Table 1) To identify the pathways affected by the treatments functional information on the genes was retrieved from public literature databases.

## CC1=C(/C=C/C(C)=C/C=C/C(C)=C/C=C/C=C(C)/C=C/C=C(C)/C=C/C2=C(C)CCCC2(C)C)C(C)(C)CCC1 [β-carotene, All-E-β-carotene]
UVA and β-carotene 1.5 μM
  NCF2; p67-phox; neutrophil oxidase factor (M32011) change factor: −0.16
  NF-κB subunit (S78771) change factor: 0.56
  NF-κB subunit (X61498) change factor: 0.7
  NFκB; p50 (S76638) change factor: 0.55
  NOL1; p120 nucleolar antigen (X55504) change factor: 0.94
  NOTCH3 (U97669) change factor: −1.37
  NOV (X96584) change factor: 0.72
  NOXA (D90070) change factor: 0.74
  NRF1 (L24123) change factor: −0.65
  NRF2, subunit beta 1 (U13045) change factor: −0.11
  OSR1; oxidative-stress responsive 1 (AB017642) change factor: 0.59
  PAR-1; thrombin receptor (M62424) change factor: −0.05
  PAR-2; proteinase activated receptor-2 (U34038) change factor: 1.91
  PAR-2; proteinase activated receptor-2 (U34038, second entry) change factor: 1.34
  PAR-2; proteinase activated receptor-2 (U67058) change factor: 3.32
  PAR-4; protease-activated receptor 4 (AF055917) change factor: −0.57
  RAIDD; death adaptor molecule (U79115) change factor: −0.66
  RB1 (L49229) change factor: −1.13
  RB2/p130 (X74594) change factor: −0.85
  RETSDR1; retinal short-chain dehydrogenase/reductase (AF061741) change factor: −0.06
  RPA; replication protein A 14 kda subunit (rpa) (L07493) change factor: −0.52
  RXRα (U66306) change factor: −0.61
  RXRα (X52773) change factor: −0.57
  Requiem (AF001433) change factor: 0.32
  SMAD 1 (U59423) change factor: −0.57
  SMAD3 (U68019) change factor: 0.01
  SMAD3 (U68019, second entry) change factor: −0.09
  SMAD4 (U44378) change factor: −0.67
  SMAD5 (U59913) change factor: −0.84
  SMAD6 (AF035528) change factor: −24.2
  SMAD7 (AF010193) change factor: −0.63
  SMRT (U37146) change factor: −1.22
  STK15; BTAK (AF011468) change factor: −1.85
  TDAG51; PQ-rich protein; PHLDA1 (Z50194) change factor: 6.19
  TGFβ; transforming growth factor β (X02812) change factor: 0.46
  TIAR; nucleolysin tiar (M96954) change factor: −0.08
  TIEG, EGRα (AF050110) change factor: −0.11
  TLR3; toll-like receptor 3 (U88879) change factor: −0.91
  TOP2; topoisomerase II (J04088) change factor: −0.86
  TRADD; TNF receptor-1 associated protein (L41690) change factor: −0.85
  TRAIL; TNF-related apoptosis inducing ligand (U37518) change factor: −2.66
  TRIP14; ‘2-5’ oligoadenylate synthetase (AJ225089) change factor: 0.67
  TRIP (U77845) change factor: −1.35
  TSSC3 (AF035444) change factor: 0.7
  TSSC3/IPL (AF001294) change factor: 1.02
  VEGF (AF022375) change factor: 0.78
  VEGF (AF024710) change factor: 1.86
  VEGF (M63978) change factor: 1.09
  VEGFR2; VEGF receptor 2; KDR; FLK-1kdr/flk-1 (AF035121) change factor: −0.28
  WEE1 (X62048) change factor: 0.05
  WNT5A (I20861) change factor: −2.22
  WNT5A (I20861, second entry) change factor: −3.34
  XRCC4 (U40622) change factor: −0.01
  bFGF; basic fibroblast growth factor; FGF2 (M27968) change factor: 0.82
  bilirubin udp-glucuronosyltransferase isozyme 2 (M57951) change factor: −0.66
  bullous pemphigoid autoantigen bp180 (M91669) change factor: −0.57
  c-myc (V00568) change factor: 3.22
  c-myc (V00568, second entry) change factor: 2.45
  c-myc binding protein (mbp-1) (M55914) change factor: 0.54
  caspase 2, ICH-1S (U13022) change factor: −0.62
  caspase 7 (U67319) change factor: 0.31
  ceruloplasmin (ferroxidase) (M13699) change factor: 1
  collagen type IV, α-2 (COL4A2) (X05610) change factor: −0.98
  collagen type IV, α-5 (COL4A5) (M58526) change factor: −1.16
  collagen type IV, α-6 (COL4A6) (D21337) change factor: −0.71
  collagen type VII, α-1 (COL7A1) (L02870) change factor: −0.83
  connexin 31 (AF099730) change factor: 2.3
  connexin 45 (U03493) change factor: 0.26
  coproporphyrinogen oxidase (D16611) change factor: −0.7
  cyclin E2 (AF091433) change factor: 0.26
  cyclin E (M73812) change factor: 1.75
  desmocollin type 4 (D17427) change factor: −1.71
  ferritin heavy chain (L20941) change factor: 0.59
  frizzled-2 (I37882) change factor: −1.38
  frizzled-6 (AB012911) change factor: −1.16
  haemochromatosis protein (hla-h) (U60319) change factor: −0.61
  hsp40; heat shock protein 40 (U40992) change factor: −0.07
  integrin α6 (X53586) change factor: −0.76
  integrin α6b (S66213) change factor: −0.46
  integrin α6b (S66213, second entry) change factor: −0.73
  jagged2 (jag2) (AF029778) change factor: −0.67
  keratin 2e (KRT2E); Keratin 2A (AF019084) change factor: −0.69
  keratin 5 (M21389) change factor: 0.81
  keratin 15 (J00124) change factor: 0.96
  keratin 16 (M28439) change factor: −0.38
  keratin 17 (Z19574) change factor: 0.6
  mKI67a mrna (long type) for antigen of monoclonal antibody KI-67 (X65550) change factor: −0.87
  mKI67a mrna (long type) for antigen of monoclonal antibody KI-67 (X65550, second entry) change factor: −1.59
  ornithine decarboxylase (M33764) change factor: 0.57
  ornithine decarboxylase (X16277) change factor: 0.37
  p21; wild-type p53 activated fragment-1 (WAF1) (U03106) change factor: 0.21
  p33; ING1b (AB024401) change factor: 0.64
  p160ROCK (U43195) change factor: −0.55
  protoporphyrinogen oxidase (D38537) change factor: −0.54
  rTS α (X67098) change factor: −0.47
  serpinB1 (M93056) change factor: 0.57
  stimulator of Fe transport (AF020761) change factor: 1.03
  thioredoxin reductase (X91247) change factor: 1.48
  thymidylate synthase (X02308) change factor: −0.56
  transferrin receptor (X01060) change factor: 0.91
  uroporphyrinogen III synthase (J03824) change factor: −0.61
  α topoisomerase truncated-form (L47276) change factor: −0.81
β-carotene 1.5 μM, 5 hours after UVA
  reduction of UVA induction of MMP-10: 30%
